In patent publication US11980687B2, “Liposomal compounds and methods of use thereof” (University of Kentucky Research Foundation, priority 2019, dated 2024):

How the values were obtained:
cardiac cells = assay: TUNEL and caspase-3 staining of apoptosis in the peri-infarct region; format: in vivo, mice; details: peri-infarct regions, 3 days post-MI, compared to vehicle control
Procedure: Cell apoptosis was examined on deparaffinized and rehydrated sections from mice (N=4/treatment group) sacrificed at day 3, as previously described ([…] et al. 2018). TUNEL and caspase-3 staining was performed in the Biospecimen Procurement and Translational Pathology Shared Resource Facility (BPTP SRF) at the University of Kentucky. Nucleated cells that stained positive were estimated. Quantification was performed using Cell Counter plugin for ImageJ (version 1.51d). Findings are presented as total positive cells per high power field in the peri-infract region. All measurements were obtained in the peri-infarcted areas only and analyzed by blinded observer.

macrophages [1] = assay: Immunohistochemistry of macrophages in the peri-infarct zone; format: in vivo, mice
Procedure: Heart sections (N=4/treatment group) were prepared as described in the previous section. Immunostaining of heart sections was performed on deparaffinized and rehydrated sections as previously described (Al-Darraji, Haydar et al. 2018). Briefly, after deparaffinization and rehydration, sections were incubated with primary antibodies: rabbit anti-mouse IBA1 (Wako), goat anti-mouse CD206 (R and D Systems), and goat anti-mouse IL-1β (R & D Systems) overnight at 4° C., then washed and incubated with secondary antibodies conjugated to Alexa Fluor 488 or 594 (Invitrogen), followed by incubation with DAPI. In the peri-infarct area, 10-15 adjacent zones per section (1-2 sections/animal) were imaged at 40× magnification utilizing Nikon Confocal Microscope A1 in the University of Kentucky Confocal Microscopy facility. Nucleated cells that were antibody-positive were quantified using Cell Counter plugin for Nikon NIS-Elements (version AR 3.2). Findings are presented as total number of positive cells per high power field in the area of interest.

[2] = tested on: pro- and anti-inflammatory cytokine expression; assay: RT-PCR of inflammatory and reparative gene expression in heart and blood cells post-MI; format: in vivo, mice
Procedure: PureLink RNA Mini Kit (ThermoFisher Scientific) was used to isolate total mRNA from heart and blood cells according to manufacturer protocol. Isolated RNA was quantified using NanoDrop 8000 spectrophotometer (Thermofisher). Next, cDNA was generated using SuperScript VILO cDNA synthesis kit (Invitrogen). Using a QuantaStudio 7 Flex real-time thermocycler (Applied Biosystems by life technology), Reverse Transcription-Polymerase Chain Reaction (RT-PCR) was performed to measure the mRNA expression of markers identifying: inducible nitric oxide synthase (iNOS), tumor necrosis factor alpha (TNF-α), monocyte chemotactic protein-1 (MCP-1), transforming growth factor beta (TGF-β), interleukin-1 beta (IL-1β), interleukin-6 (IL-6), interleukin-4 (IL-4), chitinase-like3 Chil3 (YM1), interleukin-10 (IL10), arginase-1 (ARG-1), and Peroxisome proliferator-activated receptor gamma (PPARg). We used the comparative Ct method for relative estimation of mRNA expression which was normalized to 18s (a housekeeping gene). […]

Ly6C^hi monocytes = assay: Flow cytometry of Ly6C^hi monocytes in heart and blood post-MI; format: in vivo, mice; details: first day after injury; effect disappears at later timepoints
Procedure: (§1) Cell phenotype, in addition to gene analyses, of monocytes and neutrophils were investigated in peripheral blood as previously described ([…] et al. 2018). Briefly, blood was collected in tubes with a 1:5 ratio of ethylene diaminetetraacetic acid (EDTA)/citrate-theophylline-adenosinedipyridamole (CTAD) on days 1, 3 and 7 post-MI. Whole blood was centrifuged for 5 minutes at 500×g, and the plasma layer was separated and reserved at -80° C. To lyse red blood cells, the residual cell pellet was incubated with 0.5 ml of diluted red blood lysing buffer (BD pharm lyse) for 10 minutes with mild agitation. To end the lysis process, 0.5 ml of staining buffer (5% goat serum, 0.05% sodium azide in phosphate-buffered saline) was added to the suspension of red blood cell lysed blood. Then, the suspension was centrifuged at 400×g for 5 minutes, and the supernatant was removed. This step was repeated if the red blood cells were still detectable in the cell pellet. White blood cell pellet was washed twice in staining buffer to remove any residual lysis buffer. After supernatant removal, the pellet was resuspended in a pre-determined volume of staining buffer and counted. […] Following incubation, cells were washed twice with staining buffer and analyzed by an LSR II (Becton Dickinson) in the University of Kentucky Flow Cytometry Core. […]

macrophages [3] = assay: Flow cytometry of macrophage phenotypes in the injured heart; format: in vivo, mice; details: heart post-MI, relative to Lazm
Procedure: Phenotypic cell analysis of macrophages and neutrophils and gene expression analysis was conducted in the heart as previously described ([…] et al. 2018). Briefly, mice were sacrificed, and hearts were rapidly isolated and placed in ice cold PBS (VWR International). Using a razor blade, the heart was minced manually. After mincing, tissue was incubated with a Collagenase B (Roche, Indianapolis, IN) and Dispase II (Roche, Indianapolis, IN) mixture at 37° C. for 30 minutes, with gentle agitation every 5-10 minutes. Tissue digestion ceased using cold staining buffer and the suspension was placed on ice and filtered using a 70 μm cell strainer, followed by centrifugation at 400×g for 5 mins at 4° C. Supernatant was discarded and the pellet was resuspended in 0.3 ml of staining buffer. Individual heart cells were divided into approximately three equal portions depending on cell counting with 10^6 live (trypan blue-negative) cells in each. Two portions were used for cell staining while the remainder was incubated with cell lysis buffer (Life technologies) using multiple aggressive agitations, for 10 minutes and reserved at -80° C. for further gene expression analysis. […] Cells were then washed twice with staining buffer and analyzed by an LSR II (Becton Dickinson) in the University of Kentucky Flow Cytometry Core. […]

[4] = cited from earlier work
neutrophils = assay: Flow cytometry of neutrophils and N1 neutrophils in heart and blood post-MI; format: in vivo, mice; details: day 1 post-MI
Procedure: as §1

heart = assay: Hemodynamic and ECG effects after retro-orbital administration; format: in vivo, mice; details: 40 mg/kg retro-orbital
Procedure: Mice were anaesthetized using 1%-3% isoflurane during Echocardiography to maintain heart rate of 450-500 BPM during imaging. A Vevo 3100 system coupled with a 15-7-MHz linear broadband transducer and a 12-5-MHz phased array transducer was used to perform Echocardiogram analyses. Heart function was examined at baseline (before cardiac surgery) then one-week and 4 weeks post-MI. During acquisition, a heating pad was used to preserve the body temperature at 37° C.; the temperature was continuously assessed by a rectal temperature probe. Using modified parasternal long-axis and short-axis, two-dimensional and Doppler echocardiography was used to assess the LV function and volume in M-mode. Tracings at the mid-papillary level to investigate the systolic and diastolic parameters and Teichholz formula were used to quantify LV function. Echocardiography imaging and analyses were carried out by a blinded investigator. Mice were anesthetized with 2% isoflurane, then placed on the ECG platform. Electrodes were inserted subcutaneously on the two front paws and the left rear paw followed by ECG recording for 2-3 minutes. Once the recording was completed, the data were analyzed using Chart software (PhysioTel).

infarcted heart = assay: Masson's trichrome scar size 30 days post-MI; format: in vivo, mice; details: compared to controls
Procedure: Histological analysis was performed on deparaffinized and rehydrated sections as previously described (Al-Darraji, Haydar et al. 2018). Briefly, 30 day post-MI mice (N=6-10/treatment group) were sacrificed under isoflurane anesthesia and hearts were isolated. Hearts were perfused with PBS (VWR International) then by 10% buffered formalin (VWR International) at 75 mmHg. Perfused hearts were placed in 10% neutral buffered formalin (VWR) overnight at room temperature, then sectioned into 2-mm cross-sections starting at the level of coronary ligation then imbedded in paraffin and sectioned into 4-μm sections. Sections were stained with Masson's trichrome to evaluate scar size as previously described (Al-Darraji, Haydar et al. 2018). Digital images of stained sections were acquired, and areas of interest were assessed using NIH ImageJ […] software. The LV area, LV cavity area, and infarct area were measured as previously described (Al-Darraji, Haydar et al. 2018). Scar size was presented as a percentage of the total LV […].

IL-1β = IL-1β (Homo sapiens, UniProt P01584); details: cited from earlier work

Molecule	TUNEL positive cells (late apoptosis) (cardiac cells)	caspase-3 positive cells (early apoptosis) (cardiac cells)	mortality during drug administration (40 mg/kg IV, post-MI)	survival (35 days post-MI, vs vehicle-treated mice)	reparative macrophages (CD206+) in peri-infarct zone (macrophages [1]; day 3 post-MI, compared to control groups)	expression of IL-1β in macrophages (IBA1+IL-1β+) (macrophages [1]; peri-infarct zones, 3 days post-MI, compared to controls)	expression of anti-inflammatory cytokines and reparative macrophage markers (TGF-β, IL-10, IL-4, ARG, Fizz1, PPARγ, YM1) in cardiac tissue ([2]; consistent effects up to day 7)	mRNA levels of iNOS and pro-inflammatory cytokines (MCP-1, TNF-α, IL-6, IL-1β) in cardiac tissue ([2]; particularly days 1 and 3 post-infarct)	Ly6C^hi (pro-inflammatory) monocytes in the heart (Ly6C^hi monocytes)	immunomodulatory changes of heart macrophages (FACS) (macrophages [3])	post-MI cardiac recovery ([4]; 160 mg/kg/day, orally, initiated 3 days pre-MI)	neutrophil counts ([4]; first study, mice receiving AZM)	neutrophil counts in the heart (neutrophils)	QT interval (heart)	RR (heart; compared with baseline)	cardiac output (heart; compared with baseline)	ejection fraction (heart; compared with baseline)	heart rate (heart; compared with baseline)	scar size (percentage of LV area) (infarcted heart)	cardiovascular events reoccurrence (IL-1β)
CC[C@H]1OC(=O)[C@H](C)[C@@H](O[C@H]2C[C@@](C)(OC)[C@@H](O)[C@H](C)O2)[C@H](C)[C@@H](O[C@@H]2O[C@H](C)C[C@H](N(C)C)[C@H]2O)[C@](C)(O)C[C@@H](C)CN(C)[C@H](C)[C@@H](O)[C@]1(C)O [free AZM, azithromycin]	remarkable reduction	remarkable reduction	occurs during the drug administration due to severe changes in cardiac conduction and hemodynamic parameters	marked improvement in survival	significant increase	marked reduction	significantly upregulated	substantially downregulated	significantly decrease in the first day after injury	Less powerful immunomodulatory changes	enhances post-MI cardiac recovery	substantially decreased	did not see significant changes	prolonged	remarkably reduces	remarkably reduces	remarkably reduces	remarkably reduces	significant reduction	
canakinumab: monoclonal antibody targeting IL-1β																				significantly decreases cardiovascular events reoccurrence
